Source: patent US10632064B2, “Topical regional neuro affective therapy with cannabinoid combination products” (Afgin Pharma, LLC, priority 2015, dated 2020)
“And” between values parts separate entries of the source, which are not always exact repeats. Identical values can stand only once. “Also recorded” adds a separate entry of the source.

Legend:
[1] = system: patients having acute and chronic neurological and psychiatric conditions; assay: Example 12: topical CBD from crystalline powder (Table 6); format: in vivo, human
Description: In Example 12, 19 patients having acute and chronic neurological and psychiatric conditions were treated with topical CBD at the back of the neck. The treatment comprised a dose of either 15 mg or 30 mg cannabinoid drugs, with the majority being CBD, the source of the CBD being CBD crystalline powder oil commercially available from CannaVest.

[2] = system: patients having back/spine pain, fibromyalgia, and/or extremity pain; assay: Example 10: topical CBD (Table 4); format: in vivo, human
Description: (§1) In Example 10, 16 patients having back/spine pain, fibromyalgia, and/or extremity pain were treated with topical CBD at the back of the neck. The treatment comprised a dose of either 15 mg or 30 mg cannabinoid drugs, with the majority being CBD, the source of the CBD being CBD oil commercially available from CannaVest.

[3] = system: patient with atonic seizures; assay: Example 17: 1 g of 1.6% CBD cream nuchal, atonic seizures, EEG; format: in vivo, human
Description: In Example 17, a patient presented with atonic seizures. The patient would suddenly freeze and fall down (e.g., riding a bike, at school, etc.). FIG. 11 is a baseline EEG taken at the initial examination, showing cortical irritability on the left central region c/w potential for seizures.
The patient was treated with 1 g of 1.6% CBD cream to the nuchal (back of the neck). […] FIG. 13 is a brain MRI of the patient showing a left thalamic hamartoma, a benign developmental process, likely irritating the brain and causing their seizures.

[4] = system: person, cerebellar posterior fossa cyst, generalized seizure; assay: Example 13: 2% CBD cream to the nuchal region, absence seizures, EEG; format: in vivo, human
Description: In Example 13, person suffering from a cerebellar posterior fossa cyst, generalized seizure manifesting as standing and staring and unresponsive was treating in accordance with the present invention. FIG. 2 is an EEG showing a baseline EEG of the patient of Example 13. […] Previously, ethosuximide had been recommended for treatment, but the parents were reluctant to have the patient on a systemic […] therapy in view of the potential side effects. The patient was treated with a 2% CBD cream to the nuchal (back of the neck) region twice a day. After two weeks, the dosage regimen was changed to one application per day.

[5] = system: human patient with episodic severe post-operative neuralgic head pain; assay: Example 6: topical cannabidiol 40 mg at the BONATH, post-operative neuralgic head pain, EEG; format: in vivo
Description: The efficacy of a topical cannabidiol formulation was studied in a human patient (s/p resection right clival meningioma) suffering from episodic severe post-operative neuralgic head pain suffering from severe right-sided neuralgic head pain every 15-20 seconds. The patient was treated with cannabidiol 40 mg applied to the BONATH in a topical formulation. There was attenuation of associated focal EEG abnormalities. […] The neuralgic head pain was less severe by about 50% (frequency decreased to every 2-5 minutes).

[6] = system: patients having headaches and neck pain; assay: Example 9: topical CBD at the back of the neck (Table 3); format: in vivo, human
Description: (§2) In Example 9, 13 patients having headaches and neck pain were treated with topical CBD at the back of the neck. The treatment comprised a dose of either 15 mg or 30 mg cannabinoid drugs, with the majority being CBD, the source of the CBD being CBD oil commercially available from CannaVest.

[7] = system: acute paranoid schizophrenia; details: cited from earlier work
[8] = system: patient with autism and generalized seizures; assay: Example 15: 1 g of 2% CBD cream nuchal, autism and generalized seizures, EEG; format: in vivo, human
Description: In Example 15, a patient presented with autism and generalized seizures. They were uncontrolled on Lamictal, Depakote, Keppra, Zonegran, ethosuximide/Zarontin. When examined, they presented with seizures about every 2 weeks on Banzel, Onfi, and Topamax as antiepileptics. FIG. 7 is a baseline EEG taken at the initial examination, showing seizure focus, showing generalized slowing and disorganization with left frontal sharp waves and paroxysms of sharp waves and spikes.
The patient was treated with 1 g of 2% CBD cream to the nuchal (back of the neck). […] They continued therapy with the topical CBD cream to the nuchal region twice daily, and the Topamax was tapered off, resulting in added overall improved encephalopathy.

[9] = system: patient with stroke and focal seizures; assay: Example 16: 1 g of 1.6% CBD cream nuchal, stroke and focal seizures, EEG; format: in vivo, human
Description: In Example 16, a patient presented with stroke and focal seizures. […]. FIG. 9 is a baseline EEG taken at the initial examination, showing left fronto-central seizure focus.
The patient was treated with 1 g of 1.6% CBD cream to the nuchal (back of the neck). […] They were able to return to work as a beterinarian and do surgery, which was unexpected as their Rehab MD had previously advised them that we would have to retire.

[10] = system: patients having Parkinson's disease, tremors, or movement disorders; assay: Example 11: topical CBD at the back of the neck (Table 5); format: in vivo, human
Description: as §2, with “11, 6” for “9, 13”, “Parkinson's disease, tremors, or movement disorders” for “headaches and neck pain”

[11] = system: patients having seizures, encephalopathy, and/or spasticity; assay: Example 8: topical CBD at the back of the neck (Table 2); format: in vivo, human
Description: as §1, with “8, 34” for “10, 16”, “seizures, encephalopathy,” for “back/spine pain, fibromyalgia,”, “spasticity” for “extremity pain”

[12] = 15 mg or 30 mg cannabinoid drugs (CBD oil) topical, one patient per entry
[13] = after topical CBD, single patients
[14] = cannabidiol 40 mg topical at BONATH
[15] = twice a day CBD treatment to the nuchal region

## C=C(C)[C@@H]1CCC(C)=C[C@H]1c1c(O)cc(CCCCC)cc1O [CBD, cannabidiol]
[1]; 0.75% topical CBD to neck and 1% to back
  result in words (Table 6): 1% to back with patient feeling more alert
[1]; 1% topical CBD to neck and back
  time after application at which the effect was seen: ≤ 1 min
[1]; 1% topical CBD, one patient per entry
  result in words (Table 6): became more alert and spontaneous; also recorded: spasticity improved with better movement of; also recorded: improved pain within three minutes. Stated; also recorded: worked better than oil-based CBD they had; also recorded: focus, clearer thinking, and reduced anxiety
[1]; 1% topical CBD, single patients
  pain decrease: 50% and pain 20% within a few minutes. and additional 30% from prior baseline.
[1]; 1.5% topical (powdered) CBD cream
  result in words (Table 6): 1.5% topical CBD reduced neck tension and relieved neuropathic pain. Had been using and relieved anxiety and improved demeanor.
[1]; 2% topical CBD cream
  result in words (Table 6): relieved back and lower extremity; also recorded: relieved neck pain and tension from
[1]; 2% topical CBD cream to back of neck, from 8 of 10, in few minutes
  neck pain and tension level after treatment: 8 of 10 to 2 in few minutes.
[2]; [12]
  result after topical CBD, in words (Table 4): Right hand symptoms improved after topical; also recorded: improved strength; also recorded: relief better than Tramadol; also recorded: improved mobility and back pain relief; also recorded: back of neck and back 3×/day; pain relief
[2]; [13]
  pain reduction/relief: pain diminished 40% with improved and 30-40% and 30% (2×) and 50% and 60% reduction in chronic pain within a few
[2]; person, before 6 of 10, after 10 minutes
  left lower extremity pain after topical CBD: 2 /10
[2]; single patients
  time after topical CBD at which the effect was seen: 5 minutes (2×) and 10 minutes and within 10 minutes. and Within 15 minutes of topical CBD application and ≤ 15 minutes and ≤ 10 minutes and within 2 minutes of application.
[3]; 10 minutes after application of 1 g of 1.6% CBD cream (FIG. 12)
  EEG after CBD dose: attenuated seizure focus
[3]; topical CBD nuchal since October 2015, only medication
  seizure status on treatment: seizure-free since initiating topical CBD therapy
[4]; 2% CBD cream to nuchal region twice a day
  clinical findings at the two week check-up: No seizures were noted; also recorded: no long bed wetting; also recorded: reading levels had increased two levels
[4]; 5 minutes after the start of therapy (FIG. 3)
  EEG post-treatment: attenuated seizure focus
[4]; 8 minutes after the start of therapy (FIG. 4)
  EEG post-treatment: further attenuation of seizure focus
[5]; [14]
  EEG after nuchal administration: attenuation of the right temporal waves to a more normal state
  duration of EEG improvement and clinical benefit: The EEG improvement lasted several minutes, but the clinical benefit lasted several hours
  neuralgic head pain less severe: about 50%
[5]; cannabidiol 40 mg topical, before every 15-20 seconds
  frequency of neuralgic head pain after treatment (every ...): 2 to 5 min
[6]; [12]
  result after topical CBD, in words (Table 3): improved mobility and After week of daily use, headache free and calm, less anxious, and breathing easier. and Headache and neck pain resolved and Chronic daily headaches resolved after daily and Neck pain resolved and 2×/day with benefit for past 2 months. Injury and the neck, pain resolve and ROM improved and chronic headache and improved range and Pain resolved after several and All pain symptoms resolved after 3 weeks of
[6]; Bell's palsy, CBD to back of neck and region of stylomastoid foramen
  right facial weakness and decreased sensation improved: 30%
[6]; [13]
  pain (headache, neck, TMJ, back, thoracic) reduction: 50% and diminished 50% for the first time. Prescribed and Chronic back pain improved 30% and Thoracic pain reduced 30% within and Headaches and neck pain improved 30% with
[6]; person, 5 minutes after topical CBD to the neck
  ROM of neck improved: 80%. Will continue to use daily.
[6]; single patients
  time after topical CBD at which the effect was seen: 5 minutes after topical CBD to back of neck, and 5-10 minutes and 5 minutes after topical CBD application to and ≤ 15 minutes and within 15 minutes after topical CBD and ≤ 10 minutes of topical CBD
[7]; after 2 weeks
  psychotic symptoms: significant decrease in psychotic symptoms
[7]; compared with amisulpride
  side effects: significantly fewer side effects
[8]; 2% CBD cream nuchal, continued twice daily
  clinical result: more alert and interactive; also recorded: Seizure frequency also was reduced
[8]; within one minute of application of 1 g of 2% CBD cream (FIG. 8)
  EEG after CBD application: improvement in the EEG background without previous burst activity; also recorded: right fast activity and sharp waves attenuated
[9]; 10 minutes after application of 1 g of 1.6% CBD cream (FIG. 10)
  EEG after CBD dose: attenuated seizure focus
[9]; [15]
  clinical result: remains seizure free; also recorded: helping their spastic weakness from the stroke
  time seizure free after initiation of treatment: about 9 months
[10]; 15 mg or 30 mg cannabinoid drugs (CBD oil) at back of neck, one patient per entry
  result after topical CBD, in words (Table 5): resolved festination/small steppage; also recorded: Facial twitching improved after
[10]; single patients
  time after topical CBD at which the effect was seen: 15 minutes after one application and 10 minutes and 10 minutes after topical CBD appli- and 5 minutes; now using 3×/ day.
[11]; 15 mg or 30 mg, back of neck, single patients
  time after topical CBD at which the effect was seen: 15 minutes after application of topical CBD and 10 minutes after topical CBD to back of and state within 10 minutes. and ≤ 15 minutes and 3 minutes after topical CBD application, and 30 minutes after topical CBD to back of
[11]; after 2 months use, person with Aicardi syndrome, intractable seizures
  seizure frequency reduced: reduced 60%. Prior doses of Lamicatal and
[11]; after one application/treatment of topical CBD to back of neck, single patients
  spasticity decrease/improvement: 80% and Severe baseline spasticity improved 70% and spasticity by 30% from baseline. and 30% reduction in spasticity in all 4
[11]; person s/p head injury, topical CBD to back of neck
  duration of effect: lasted 8 hours. Now on 3×/day.
